Measurements: ChEMBL document CHEMBL5154743, “Bicyclic Heterocyclic Replacement of an Aryl Amide Leading to Potent and Kinase-Selective Adaptor Protein 2-Associated Kinase 1 Inhibitors” (J Med Chem, 2022)
Each block holds one compound with its values, some of them ahead of it.

Tests used:
[1] = target: T1, AP2-associated protein kinase 1 (Homo sapiens, UniProt Q2M2I8)
[2] = Permeability of the compound at pH 5.5 by PAMPA; assay type: ADME; details: read-out: permeability
[3] = Ratio of drug concentration in brain to plasma in C57BL6 mouse at 60 mg/kg, sc; assay type: ADME, organism-based; details: read-out: BPR
[4] = Brain concentration in C57BL6 mouse at 60 mg/kg, sc by LC-MS analysis; assay type: ADME, organism-based; details: in vivo, read-out: Ct
[5] = Permeability of the compound at pH 7.4 by PAMPA; assay type: ADME; details: read-out: permeability
[6] = Unbound brain to plasma concentration ratio in C57BL6 mouse at 60 mg/kg, sc; assay type: ADME, organism-based; details: read-out: K(p,uu,brain)
[7] = Plasma concentration in C57BL6 mouse at 60 mg/kg, sc by LC-MS/MS analysis; assay type: ADME, organism-based; details: in vivo
[8] = Permeability across basolateral to apical side in human Caco-2 cells incubated for 2 hrs by LC-MS/MS analysis; assay type: ADME, cell-based; details: for Papp B→A at 2 h: Caco-2, read-out: permeability
[9] = Brain concentration in C57BL6 mouse at 30 mg/kg, sc by LC-MS analysis; assay type: ADME, organism-based; details: in vivo, read-out: Ct
[10] = Permeability across apical to basolateral side in human Caco-2 cells incubated for 2 hrs by LC-MS/MS analysis
[11] = Metabolic stability in rat liver microsomes assessed as parent compound remaining at 0.5 uM incubated for 10 mins in presence of NADPH by LC-MS/MS analysis; assay type: ADME, Microsome; details: read-out: Stability
[12] = target: T1, AP2-associated protein kinase 1; assay: Inhibition of full length human AAK1 expressed in HEK293F incubated for 3 hrs by Western blot analysis; assay type: cell-based
[13] = Plasma protein binding in rat assessed as unbound fraction at 10 uM incubated for 5 hrs by rapid equlibrium dialysis based LC-MS/MS method
[14] = Plasma concentration in C57BL6 mouse at 30 mg/kg, sc by LC-MS/MS analysis; assay type: ADME, organism-based; details: in vivo
[15] = Plasma protein binding in human assessed as unbound fraction at 10 uM incubated for 5 hrs by rapid equlibrium dialysis based LC-MS/MS method
[16] = Metabolic stability in human liver microsomes assessed as parent compound remaining at 0.5 uM incubated for 10 mins in presence of NADPH by LC-MS/MS analysis; assay type: ADME, Microsome; details: read-out: Stability
[17] = Plasma protein binding in mouse assessed as unbound fraction at 10 uM incubated for 5 hrs by rapid equlibrium dialysis based LC-MS/MS method
[18] = Ratio of drug concentration in brain to plasma in C57BL6 mouse at 30 mg/kg, sc; assay type: ADME, organism-based; details: read-out: BPR
[19] = Metabolic stability in mouse liver microsomes assessed as parent compound remaining at 0.5 uM incubated for 10 mins in presence of NADPH by LC-MS/MS analysis; assay type: ADME, Microsome; details: read-out: Stability
[20] = Unbound brain to plasma concentration ratio in C57BL6 mouse at 30 mg/kg, sc; assay type: ADME, organism-based; details: read-out: K(p,uu,brain)
[21] = target: MAP kinase-interacting serine/threonine-protein kinase 1 (Homo sapiens, UniProt Q9BUB5); assay: Inhibition of MNK1 (unknown origin)
[22] = target: T2, Cyclin-G-associated kinase (Homo sapiens, UniProt O14976); assay: Inhibition of GAK (unknown origin)
T2 sequence (O14976 whole entry): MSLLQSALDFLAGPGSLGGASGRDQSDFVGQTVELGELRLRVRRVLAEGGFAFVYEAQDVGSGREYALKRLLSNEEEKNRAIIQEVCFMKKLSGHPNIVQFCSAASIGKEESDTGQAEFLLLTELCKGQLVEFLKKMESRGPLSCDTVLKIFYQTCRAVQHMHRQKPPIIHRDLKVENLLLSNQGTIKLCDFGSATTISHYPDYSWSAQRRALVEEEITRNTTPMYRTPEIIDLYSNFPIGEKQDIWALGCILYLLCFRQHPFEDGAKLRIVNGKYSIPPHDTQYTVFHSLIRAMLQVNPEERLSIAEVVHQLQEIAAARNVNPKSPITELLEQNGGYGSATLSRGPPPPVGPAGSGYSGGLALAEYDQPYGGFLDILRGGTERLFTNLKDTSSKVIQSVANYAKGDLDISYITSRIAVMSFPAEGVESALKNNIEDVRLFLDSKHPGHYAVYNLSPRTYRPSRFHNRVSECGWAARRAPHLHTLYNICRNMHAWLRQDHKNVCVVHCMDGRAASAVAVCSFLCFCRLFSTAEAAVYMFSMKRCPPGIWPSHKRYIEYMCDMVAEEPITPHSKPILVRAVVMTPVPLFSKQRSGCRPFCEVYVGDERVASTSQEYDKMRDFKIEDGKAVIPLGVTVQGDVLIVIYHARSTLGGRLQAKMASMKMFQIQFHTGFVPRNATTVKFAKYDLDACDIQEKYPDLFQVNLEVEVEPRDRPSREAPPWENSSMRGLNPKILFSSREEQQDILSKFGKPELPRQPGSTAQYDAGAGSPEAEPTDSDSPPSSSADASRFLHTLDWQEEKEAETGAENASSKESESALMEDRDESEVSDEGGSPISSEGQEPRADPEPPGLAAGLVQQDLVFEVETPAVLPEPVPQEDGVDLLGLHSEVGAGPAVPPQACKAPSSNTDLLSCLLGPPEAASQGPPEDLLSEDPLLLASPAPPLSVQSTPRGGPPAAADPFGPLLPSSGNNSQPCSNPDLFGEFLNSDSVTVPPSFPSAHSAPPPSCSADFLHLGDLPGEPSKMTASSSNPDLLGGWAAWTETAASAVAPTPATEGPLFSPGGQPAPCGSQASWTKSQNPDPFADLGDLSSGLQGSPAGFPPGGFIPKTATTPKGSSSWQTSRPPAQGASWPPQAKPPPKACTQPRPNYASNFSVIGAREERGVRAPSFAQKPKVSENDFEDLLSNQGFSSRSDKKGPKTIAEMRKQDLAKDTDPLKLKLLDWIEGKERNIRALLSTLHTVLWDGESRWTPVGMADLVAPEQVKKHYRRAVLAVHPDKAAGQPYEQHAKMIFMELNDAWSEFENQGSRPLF

[23] = target: Glycogen synthase kinase-3 beta (Homo sapiens, UniProt P49841); assay: Inhibition of GSK3beta (unknown origin)
[24] = target: T3, Serine/threonine-protein kinase Chk1 (Homo sapiens, UniProt O14757); assay: Inhibition of CHK1 (unknown origin)
T3 sequence (O14757 whole entry): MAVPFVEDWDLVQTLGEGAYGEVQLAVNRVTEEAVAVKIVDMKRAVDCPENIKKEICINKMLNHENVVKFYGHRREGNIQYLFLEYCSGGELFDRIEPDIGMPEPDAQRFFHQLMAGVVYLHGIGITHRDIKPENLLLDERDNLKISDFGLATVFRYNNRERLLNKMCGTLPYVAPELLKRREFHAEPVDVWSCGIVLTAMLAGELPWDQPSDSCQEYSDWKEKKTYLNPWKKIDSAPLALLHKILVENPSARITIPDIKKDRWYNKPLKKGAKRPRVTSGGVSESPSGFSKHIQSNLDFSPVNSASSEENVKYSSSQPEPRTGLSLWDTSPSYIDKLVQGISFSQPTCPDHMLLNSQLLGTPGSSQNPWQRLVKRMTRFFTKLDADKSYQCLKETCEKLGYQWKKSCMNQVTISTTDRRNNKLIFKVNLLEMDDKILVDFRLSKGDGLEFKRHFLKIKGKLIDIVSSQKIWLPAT

[25] = target: BMP-2-inducible protein kinase (Homo sapiens, UniProt Q9NSY1); assay: Inhibition of BIKE (unknown origin)
[26] = target: Serine/threonine-protein kinase 16 (Homo sapiens, UniProt O75716); assay: Inhibition of MPSK1 (unknown origin)
Chain of Serine/threonine-protein kinase 16 (O75716 whole entry): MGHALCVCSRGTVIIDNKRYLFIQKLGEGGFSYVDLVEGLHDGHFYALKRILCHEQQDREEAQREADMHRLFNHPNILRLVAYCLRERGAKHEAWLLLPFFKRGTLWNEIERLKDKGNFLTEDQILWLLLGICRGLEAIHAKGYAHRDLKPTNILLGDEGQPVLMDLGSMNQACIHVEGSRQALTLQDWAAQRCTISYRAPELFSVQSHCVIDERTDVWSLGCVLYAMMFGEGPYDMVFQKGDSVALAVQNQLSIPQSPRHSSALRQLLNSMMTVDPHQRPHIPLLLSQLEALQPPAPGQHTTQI

T1 sequence (Q2M2I8 whole entry): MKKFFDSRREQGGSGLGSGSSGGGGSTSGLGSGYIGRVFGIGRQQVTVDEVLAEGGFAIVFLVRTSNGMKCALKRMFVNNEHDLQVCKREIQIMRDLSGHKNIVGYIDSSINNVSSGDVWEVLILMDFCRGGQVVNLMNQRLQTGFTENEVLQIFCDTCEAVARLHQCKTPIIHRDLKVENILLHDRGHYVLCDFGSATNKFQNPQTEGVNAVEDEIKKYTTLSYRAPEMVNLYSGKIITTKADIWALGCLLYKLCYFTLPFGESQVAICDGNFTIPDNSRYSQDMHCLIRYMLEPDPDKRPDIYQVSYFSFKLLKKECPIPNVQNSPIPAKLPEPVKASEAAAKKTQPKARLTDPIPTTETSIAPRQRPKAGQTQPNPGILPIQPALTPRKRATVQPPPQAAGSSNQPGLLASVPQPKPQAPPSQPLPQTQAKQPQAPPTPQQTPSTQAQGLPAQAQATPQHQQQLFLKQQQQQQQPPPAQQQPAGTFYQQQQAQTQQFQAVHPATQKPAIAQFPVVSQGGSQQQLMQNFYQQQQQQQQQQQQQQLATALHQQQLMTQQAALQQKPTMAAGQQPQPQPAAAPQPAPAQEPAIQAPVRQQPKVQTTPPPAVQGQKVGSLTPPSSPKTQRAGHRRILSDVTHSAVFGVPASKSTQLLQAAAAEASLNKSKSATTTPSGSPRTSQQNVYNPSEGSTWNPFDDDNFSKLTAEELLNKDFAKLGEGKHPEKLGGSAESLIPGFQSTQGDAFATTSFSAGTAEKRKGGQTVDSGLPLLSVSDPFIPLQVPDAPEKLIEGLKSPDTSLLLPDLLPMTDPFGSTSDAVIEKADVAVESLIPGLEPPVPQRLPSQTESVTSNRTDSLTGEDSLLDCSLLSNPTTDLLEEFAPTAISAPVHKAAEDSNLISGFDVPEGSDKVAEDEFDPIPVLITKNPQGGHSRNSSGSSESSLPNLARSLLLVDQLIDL
Chain of BMP-2-inducible protein kinase (Q9NSY1 whole entry): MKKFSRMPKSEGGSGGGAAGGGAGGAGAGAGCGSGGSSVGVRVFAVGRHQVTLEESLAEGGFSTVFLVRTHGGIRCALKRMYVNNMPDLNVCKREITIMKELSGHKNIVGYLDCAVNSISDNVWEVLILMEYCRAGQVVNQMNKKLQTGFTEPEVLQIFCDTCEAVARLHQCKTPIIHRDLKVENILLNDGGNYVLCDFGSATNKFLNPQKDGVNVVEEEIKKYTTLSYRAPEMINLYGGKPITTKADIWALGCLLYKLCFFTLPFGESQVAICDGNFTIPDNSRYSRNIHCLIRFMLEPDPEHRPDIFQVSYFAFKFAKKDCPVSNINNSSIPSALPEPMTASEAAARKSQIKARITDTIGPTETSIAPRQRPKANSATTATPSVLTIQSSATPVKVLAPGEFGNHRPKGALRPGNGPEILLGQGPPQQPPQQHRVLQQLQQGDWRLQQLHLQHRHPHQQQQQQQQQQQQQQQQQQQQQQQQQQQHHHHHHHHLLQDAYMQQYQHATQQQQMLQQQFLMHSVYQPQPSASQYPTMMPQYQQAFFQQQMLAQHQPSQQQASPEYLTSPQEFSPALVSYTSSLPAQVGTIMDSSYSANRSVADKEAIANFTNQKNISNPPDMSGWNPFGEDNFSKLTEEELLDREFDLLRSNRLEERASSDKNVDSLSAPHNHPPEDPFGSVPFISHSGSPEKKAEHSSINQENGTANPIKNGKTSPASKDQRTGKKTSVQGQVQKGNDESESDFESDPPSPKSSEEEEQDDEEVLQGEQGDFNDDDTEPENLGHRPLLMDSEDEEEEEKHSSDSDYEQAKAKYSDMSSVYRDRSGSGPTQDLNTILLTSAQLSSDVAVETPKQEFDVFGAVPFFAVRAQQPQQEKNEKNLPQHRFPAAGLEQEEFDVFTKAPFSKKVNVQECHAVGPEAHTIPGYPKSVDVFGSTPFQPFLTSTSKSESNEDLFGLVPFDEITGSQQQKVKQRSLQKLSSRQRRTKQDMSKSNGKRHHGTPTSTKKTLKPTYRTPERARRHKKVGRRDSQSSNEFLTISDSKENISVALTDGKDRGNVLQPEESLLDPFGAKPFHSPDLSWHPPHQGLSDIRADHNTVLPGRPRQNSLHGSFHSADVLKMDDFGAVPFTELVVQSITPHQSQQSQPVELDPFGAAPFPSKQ
Chain of MAP kinase-interacting serine/threonine-protein kinase 1 (Q9BUB5 whole entry): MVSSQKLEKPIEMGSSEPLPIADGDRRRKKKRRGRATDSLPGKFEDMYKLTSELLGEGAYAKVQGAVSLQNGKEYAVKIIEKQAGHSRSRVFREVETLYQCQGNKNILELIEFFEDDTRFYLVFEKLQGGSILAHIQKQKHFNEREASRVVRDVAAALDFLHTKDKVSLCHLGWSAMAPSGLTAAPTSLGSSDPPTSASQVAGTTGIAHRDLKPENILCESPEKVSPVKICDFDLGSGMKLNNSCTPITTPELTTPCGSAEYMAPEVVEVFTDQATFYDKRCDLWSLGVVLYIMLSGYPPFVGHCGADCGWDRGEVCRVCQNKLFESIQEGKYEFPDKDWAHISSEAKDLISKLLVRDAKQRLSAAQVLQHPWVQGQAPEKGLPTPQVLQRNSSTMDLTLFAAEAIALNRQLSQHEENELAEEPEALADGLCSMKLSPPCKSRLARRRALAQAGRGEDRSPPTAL
Chain of Glycogen synthase kinase-3 beta (P49841 whole entry): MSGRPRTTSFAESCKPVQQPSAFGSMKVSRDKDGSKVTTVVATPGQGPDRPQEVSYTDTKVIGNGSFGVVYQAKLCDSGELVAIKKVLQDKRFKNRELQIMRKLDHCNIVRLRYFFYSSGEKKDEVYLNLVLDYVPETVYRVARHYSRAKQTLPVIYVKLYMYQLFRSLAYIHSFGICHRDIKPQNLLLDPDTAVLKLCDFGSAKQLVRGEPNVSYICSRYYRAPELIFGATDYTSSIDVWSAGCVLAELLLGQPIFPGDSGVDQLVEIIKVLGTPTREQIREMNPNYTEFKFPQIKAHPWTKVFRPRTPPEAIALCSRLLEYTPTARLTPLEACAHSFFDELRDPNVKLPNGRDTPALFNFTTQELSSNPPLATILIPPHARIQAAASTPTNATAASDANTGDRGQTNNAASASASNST

Compound: COc1cc2nc(C(N)CC(C)C)nc(C#N)c2cc1-c1cnco1 (centres undefined)
IC50 [1]: 6.2 nM

Compound: CC(C)C[C@@H](N)C(=O)Nc1ccc(-c2cnco2)c(OC(F)F)c1
Papp [2]: 96.7 ×10⁻⁶ cm/s
Kp [3]: 0.7
concentration [4]: 27 µM
Papp [5]: 91.8 ×10⁻⁶ cm/s
Kp uu [6]: 0.5
concentration [7]: 41 µM
permeability ([8]; caco-2, 2 h): 11.3 10^-6 cm/s

Compound: COc1cc2nc(C(N)CC(C)C)ncc2cc1-c1cnco1 (centres undefined)
IC50 [1]: 110 nM

Compound: CCOc1nc(C(N)CC(C)C)nc2ccc(-c3cnco3)cc12 (centres undefined)
IC50 [1]: 340 nM

Compound: CC(C)C[C@@H](N)c1cc(C#N)c2cc(-c3ccncc3)ccc2n1
Papp [2]: 40 ×10⁻⁶ cm/s
concentration [9]: 29 µM
IC50 [1]: 11 nM
Papp A→B at 2 h [10]: 13.5 ×10⁻⁶ cm/s
remaining at 10 min, 0.5 µM [11]: 43%
IC50 [12]: 108 nM
fraction unbound at 5 h, 10 µM [13]: 0.045
concentration [14]: 23 µM
Papp [5]: 30.7 ×10⁻⁶ cm/s
fraction unbound at 5 h, 10 µM [15]: 0.18
remaining at 10 min, 0.5 µM [16]: 83%
fraction unbound at 5 h, 10 µM [17]: 0.13
Kp [18]: 1.3
remaining at 10 min, 0.5 µM [19]: 77%
Papp B→A at 2 h [8]: 10.3 ×10⁻⁶ cm/s
Kp uu [20]: 0.4

Compound: CC(C)C[C@H](N)c1cc(C#N)c2cc(-c3cnco3)ccc2n1
IC50 [1]: 4.2 nM
Papp A→B at 2 h [10]: 7.1 ×10⁻⁶ cm/s
remaining at 10 min, 0.5 µM [11]: 56%
IC50 [12]: 32 nM
fraction unbound at 5 h, 10 µM [13]: 0.009
Papp [5]: 93 ×10⁻⁶ cm/s
fraction unbound at 5 h, 10 µM [15]: 0.014
remaining at 10 min, 0.5 µM [16]: 76%
fraction unbound at 5 h, 10 µM [17]: 0.03
remaining at 10 min, 0.5 µM [19]: 71%
Papp B→A at 2 h [8]: 5.7 ×10⁻⁶ cm/s

Compound: CC(C)CC(N)c1cc(C#N)c2cc(-c3ccncc3)ccc2n1 (centres undefined)
IC50 [1]: 7.3 nM

Compound: CCNc1nc(C(N)CC(C)C)nc2ccc(-c3cnco3)cc12 (centres undefined)
IC50 [1]: 1100 nM

Compound: CCc1nc([C@@H](N)CC(C)C)nc2cc(OC)c(-c3cnco3)cc12
Papp [2]: 80.3 ×10⁻⁶ cm/s
IC50 [1]: 12 nM
Papp A→B at 2 h [10]: 13.4 ×10⁻⁶ cm/s
remaining at 10 min, 0.5 µM [11]: 43%
IC50 [12]: 34 nM
fraction unbound at 5 h, 10 µM [13]: 0.077
Papp [5]: 78.5 ×10⁻⁶ cm/s
fraction unbound at 5 h, 10 µM [15]: 0.17
remaining at 10 min, 0.5 µM [16]: 83%
fraction unbound at 5 h, 10 µM [17]: 0.1
remaining at 10 min, 0.5 µM [19]: 47%
Papp B→A at 2 h [8]: 14.2 ×10⁻⁶ cm/s

Compound: CC(C)C[C@H](N)c1cc(C#N)c2cc(-c3ccncc3)ccc2n1
Papp [2]: 112 ×10⁻⁶ cm/s
concentration [9]: 23 µM
IC50 [1]: 5.8 nM
IC50 [21]: 57 nM
Papp A→B at 2 h [10]: 11.4 ×10⁻⁶ cm/s
IC50 [22]: > 1000 nM
IC50 [23]: 112 nM
remaining at 10 min, 0.5 µM [11]: 50%
IC50 [24]: 998 nM
IC50 [12]: 19 nM
fraction unbound at 5 h, 10 µM [13]: 0.054
concentration [14]: 16 µM
IC50 [25]: 161 nM
Papp [5]: 96.9 ×10⁻⁶ cm/s
fraction unbound at 5 h, 10 µM [15]: 0.18
remaining at 10 min, 0.5 µM [16]: 72%
fraction unbound at 5 h, 10 µM [17]: 0.14
Kp [18]: 1.5
remaining at 10 min, 0.5 µM [19]: 56%
IC50 [26]: > 1000 nM
Papp B→A at 2 h [8]: 4.4 ×10⁻⁶ cm/s
Kp uu [20]: 0.4

Compound: CCc1nc([C@H](N)CC(C)C)nc2cc(OC)c(-c3cnco3)cc12
IC50 [1]: 95 nM

Compound: CC(C)C[C@@H](N)c1cc(C#N)c2cc(-c3cnco3)ccc2n1
IC50 [1]: 22 nM

Further lines, results first:

IC50 [1]: 220 nM
Compound: CCc1nc([C@H](N)CC(C)C)nc2ccc(-c3cnco3)cc12

IC50 [1]: 1800 nM
Compound: CC(C)CC(N)c1nc2ccc(-c3ccncc3)cc2cc1C#N (centres undefined)

IC50 [1]: 67 nM
Compound: CCc1nc(C(N)CC(C)C)nc2ccc(-c3cnco3)cc12 (centres undefined)

IC50 [1]: 420 nM
Compound: CCc1nc(C(N)CC(C)C)nc2cc(OC)c(-c3ccncc3)cc12 (centres undefined)

IC50 [1]: 44 nM
Compound: CCc1nc(C(N)CC(C)C)nc2ccc(-c3ccncc3)cc12 (centres undefined)

IC50 [1]: 16 nM
Compound: CC(C)CC(N)c1nc(C#N)c2cc(-c3ccncc3)ccc2n1 (centres undefined)

IC50 [1]: 21 nM
Compound: CC(C)CC(N)c1ccc2cc(-c3ccncc3)ccc2n1 (centres undefined)

Papp [2]: 93.5 ×10⁻⁶ cm/s
IC50 [1]: 30 nM
Papp A→B at 2 h [10]: 18.4 ×10⁻⁶ cm/s
remaining at 10 min, 0.5 µM [11]: 26%
IC50 [12]: 49 nM
fraction unbound at 5 h, 10 µM [13]: 0.25
Papp [5]: 90.7 ×10⁻⁶ cm/s
fraction unbound at 5 h, 10 µM [15]: 0.32
remaining at 10 min, 0.5 µM [16]: 62%
fraction unbound at 5 h, 10 µM [17]: 0.11
remaining at 10 min, 0.5 µM [19]: 56%
Papp B→A at 2 h [8]: 15.6 ×10⁻⁶ cm/s
Compound: CCc1nc([C@@H](N)CC(C)C)nc2ccc(-c3cnco3)cc12
